# How the values were obtained:
# [1] = tested on: electrically kindled rats (Stage 5 seizures); assay: Electrically kindled rat model (corneal electrodes); assay type: in vivo, Wistar rats; details: one hour after administration; for % Protection: 100% minus % Seizure Activity
# Excerpt: A similar effect for the enantiomer of Formula (Ib) was also found in the electrically kindled rat model (Racine R., J. Clin. Neurophysiol., 1972, 32, 281-294), an alternative model of kindling. Electrical stimulation through corneal electrodes induces a progression of behavioral seizures similar to those observed in hippocampal kindling.
# Adult male Wistar rats were electrically kindled for 4 seconds (8 mA; 60 Hz) via corneal electrodes for a minimum of Stage 5 seizures.
# One hour after oral administration, % Seizure Activity was assessed as a combined score of seizure activity for each animal for the total number of animals per group; % Protection is derived by subtracting % Seizure Activity om 100%.
# hippocampal kindled rats = assay: Hippocampal kindled rat model; assay type: in vivo, Sprague-Dawley rats; details: for # Protected/# Tested / Afterdischarge Duration (sec) ± S.E.M. / Seizure Score ± S.E.M.: time of test 15 min; for Seizure Score ± S.E.M.: stages 1-5
# Method: In the hippocampal kindling model (Lothman E W, et al., Epilepsy Res., 1988, 2(6) 367-79), adult male Sprague-Dawley rats are surgically implanted with bipolar electrodes. Seizure score was assessed using the following stages: (1) mouth and facial movements; (2) above symptoms plus head nodding; (3) above symptoms plus forelimb clonus;(4) above symptoms plus rearing; and (5) above symptoms plus falling.
structure (smiles),measurement,setting,value
NC(=O)OC[C@@H](O)c1ccccc1Cl [Formula (Ib)],% Seizure Activity,[1]; 1 mg/kg oral,93.3%
same,% Protection,[1]; 1 mg/kg oral,6.7%
same,% Seizure Activity,[1]; 3 mg/kg oral,46.7%
same,% Protection,[1]; 3 mg/kg oral,53.3%
same,% Seizure Activity,[1]; 10 mg/kg oral,33.3%
same,% Protection,[1]; 10 mg/kg oral,66.7%
same,% Seizure Activity,[1]; 100 mg/kg oral,0%
same,% Protection,[1]; 100 mg/kg oral,100%
same,ED50,"[1]; Rattus norvegicus, 1 h, oral, expression of Stage 5 seizures",4.2 mg/kg
same,# Protected/# Tested,hippocampal kindled rats; 12.5 mg/kg intraperitoneally,2/7
same,Afterdischarge Duration (sec) ± S.E.M.,hippocampal kindled rats; 12.5 mg/kg intraperitoneally,52.00 ± 10.88 s
same,Seizure Score ± S.E.M.,hippocampal kindled rats; 12.5 mg/kg intraperitoneally,3.43 ± 0.53
same,# Protected/# Tested,hippocampal kindled rats; 25 mg/kg intraperitoneally,4/7
same,Afterdischarge Duration (sec) ± S.E.M.,hippocampal kindled rats; 25 mg/kg intraperitoneally,38.29 ± 13.48 s
same,Seizure Score ± S.E.M.,hippocampal kindled rats; 25 mg/kg intraperitoneally,2.29 ± 0.78
same,# Protected/# Tested,hippocampal kindled rats; 37.5 mg/kg intraperitoneally,5/7
same,Afterdischarge Duration (sec) ± S.E.M.,hippocampal kindled rats; 37.5 mg/kg intraperitoneally,38.00 ± 11.87 s
same,Seizure Score ± S.E.M.,hippocampal kindled rats; 37.5 mg/kg intraperitoneally,2.29 ± 0.75
same,ED50,"hippocampal kindled rats; Rattus norvegicus, ip, intraperitoneally, 95% confidence interval of 12.5 to 37.5 mg/kg, read-out: calculated ED50 for reduction of the seizure score from 5 to 3 or less",~22.5 mg/kg

# Source: patent US6562867B2, “Carbamate compounds for use in preventing or treating bipolar disorder” (Ortho-McNeil Pharmaceutical, Inc., priority 2001, dated 2003)
